In ChEMBL document CHEMBL1201862, “PubChem BioAssay data set” (2004):
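Test compounds were applied to cells in 96-well plates for 48 hours at 5 doses. At the GI50, growth is halved.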 Active and inactive are the calls of the source. Cut-off read from the data, not from the text of the source: active = GI50 up to about 1.1 µM and inactive = higher.

Columns and labels:
Experiment in all cases: DTP human tumour cell line panel, 48 h
KM12 = tested on: KM12
SK-MEL-2 = tested on: SK-MEL-2
A498 = tested on: A498
K562 = tested on: K562
SK-OV-3 = tested on: SK-OV-3
CAKI-1 = tested on: CAKI-1
IGROV-1 = tested on: IGROV-1
COLO 205 = tested on: COLO 205
EKVX = tested on: EKVX
HOP-62 = tested on: HOP-62
NCI-H23 = tested on: NCI-H23
OVCAR-3 = tested on: OVCAR-3
A549 = tested on: A549
SF-295 = tested on: SF-295
T47D = tested on: T47D
SF-539 = tested on: SF-539
U-251 = tested on: U-251
HOP-92 = tested on: HOP-92
MOLT-4 = tested on: MOLT-4
RXF 393 = tested on: RXF 393
TK-10 = tested on: TK-10
NCI-H226 = tested on: NCI-H226
DU-145 = tested on: DU-145
UACC-62 = tested on: UACC-62
LOX IMVI = tested on: LOX IMVI
Hs-578T = tested on: Hs-578T
HCT-15 = tested on: HCT-15
SK-MEL-28 = tested on: SK-MEL-28
BT-549 = tested on: BT-549
SNB-75 = tested on: SNB-75
UACC-257 = tested on: UACC-257
SNB-19 = tested on: SNB-19
NCI/ADR-RES = tested on: NCI/ADR-RES
MDA-MB-435 = tested on: MDA-MB-435
CCRF-CEM = tested on: CCRF-CEM
NCI-H522 = tested on: NCI-H522
UO-31 = tested on: UO-31
RPMI-8226 = tested on: RPMI-8226
SW-620 = tested on: SW-620
MDA-N = tested on: MDA-N
Malme-3M = tested on: Malme-3M
OVCAR-8 = tested on: OVCAR-8
SF-268 = tested on: SF-268
ACHN = tested on: ACHN
HCT-116 = tested on: HCT-116
786-0 = tested on: 786-0
NCI-H460 = tested on: NCI-H460
OVCAR-5 = tested on: OVCAR-5
HCC 2998 = tested on: HCC 2998
MDA-MB-231 = tested on: MDA-MB-231
SK-MEL-5 = tested on: SK-MEL-5
HT-29 = tested on: HT-29
OVCAR-4 = tested on: OVCAR-4
MCF7 = tested on: MCF7
M14 = tested on: M14
HL-60 = tested on: HL-60
PC-3 = tested on: PC-3
SN12C = tested on: SN12C
SR = tested on: SR

SMILES: CC1(C)CCC2=C(O1)/C(=N\Nc1ccc(S(N)(=O)=O)cc1)c1ccccc1C2=O
- GI50 (KM12): 10.5 µM (inactive)
- GI50 (SK-MEL-2): 11.9 µM (inactive)
- GI50 (A498): 2.37 µM (inactive)
- GI50 (K562): 28.4 µM (inactive)
- GI50 (SK-OV-3): 4.15 µM (inactive)
- GI50 (CAKI-1): 14.8 µM (inactive)
- GI50 (IGROV-1): 14.2 µM (inactive)
- GI50 (COLO 205): 20.3 µM (inactive)
- GI50 (EKVX): 16.7 µM (inactive)
- GI50 (HOP-62): 7.8 µM (inactive)
- GI50 (NCI-H23): 6.55 µM (inactive)
- GI50 (OVCAR-3): 16.7 µM (inactive)
- GI50 (A549): 14.6 µM (inactive)
- GI50 (SF-295): 11.8 µM (inactive)
- GI50 (T47D): 15.6 µM (inactive)
- GI50 (SF-539): 10.4 µM (inactive)
- GI50 (U-251): 8.73 µM (inactive)
- GI50 (HOP-92): 12.4 µM (inactive)
- GI50 (MOLT-4): 27.4 µM (inactive)
- GI50 (RXF 393): 5.37 µM (inactive)
- GI50 (TK-10): 14.5 µM (inactive)
- GI50 (NCI-H226): 4.99 µM (inactive)
- GI50 (DU-145): 12.5 µM (inactive)
- GI50 (UACC-62): 18.2 µM (inactive)
- GI50 (LOX IMVI): 4.41 µM (inactive)
- GI50 (Hs-578T): 3.13 µM (inactive)
- GI50 (HCT-15): 19.2 µM
- GI50 (SK-MEL-28): 18.7 µM (inactive)
- GI50 (BT-549): 13.1 µM (inactive)
- GI50 (SNB-75): 4.38 µM (inactive)
- GI50 (UACC-257): 9.55 µM (inactive)
- GI50 (SNB-19): 16.2 µM (inactive)
- GI50 (NCI/ADR-RES): 20.2 µM (inactive)
- GI50 (MDA-MB-435): 10.7 µM (inactive)
- GI50 (CCRF-CEM): 11.3 µM (inactive)
- GI50 (NCI-H522): 12.1 µM (inactive)
- GI50 (UO-31): 18.2 µM (inactive)
- GI50 (RPMI-8226): 27.6 µM (inactive)
- GI50 (SW-620): 20.7 µM (inactive)
- GI50 (MDA-N): 2.84 µM (inactive)
- GI50 (Malme-3M): 3.3 µM (inactive)
- GI50 (OVCAR-8): 10.6 µM (inactive)
- GI50 (SF-268): 11 µM (inactive)
- GI50 (ACHN): 19.8 µM (inactive)
- GI50 (HCT-116): 11.6 µM (inactive)
- GI50 (786-0): 7.5 µM (inactive)
- GI50 (NCI-H460): 12 µM (inactive)
- GI50 (OVCAR-5): 18.1 µM (inactive)
- GI50 (HCC 2998): 5.25 µM (inactive)
- GI50 (MDA-MB-231): 2.56 µM (inactive)
- GI50 (SK-MEL-5): 1.81 µM (inactive)
- GI50 (HT-29): 14.7 µM (inactive)
- GI50 (OVCAR-4): 5.81 µM (inactive)
- GI50 (MCF7): 13.5 µM (inactive)
- GI50 (M14): 16.1 µM (inactive)
- GI50 (HL-60): 15.1 µM (inactive)
- GI50 (PC-3): 13.6 µM (inactive)
- GI50 (SN12C): 11.2 µM (inactive)
- GI50 (SR): 5.61 µM (inactive)

SMILES: Cc1cc(-c2nc3cc(F)ccc3s2)ccc1NC(=O)[C@@H](N)CCCCN
- GI50 (KM12): 1.3 µM (inactive)
- GI50 (SK-MEL-2): 2.89 µM (inactive)
- GI50 (A498): 10.2 µM (inactive)
- GI50 (K562): 2.17 µM (inactive)
- GI50 (SK-OV-3): 8.26 µM (inactive)
- GI50 (CAKI-1): 0.647 µM (active)
- GI50 (IGROV-1): < 0.0131 µM (active)
- GI50 (COLO 205): 2.58 µM (inactive)
- GI50 (EKVX): 1.87 µM (inactive)
- GI50 (HOP-62): 3.13 µM (inactive)
- GI50 (NCI-H23): 1.48 µM (inactive)
- GI50 (OVCAR-3): 6.11 µM (inactive)
- GI50 (A549): 1.67 µM (inactive)
- GI50 (SF-295): 2.65 µM (inactive)
- GI50 (T47D): < 0.0138 µM (active)
- GI50 (SF-539): 4.99 µM (inactive)
- GI50 (U-251): 1.88 µM (inactive)
- GI50 (HOP-92): 13.4 µM (inactive)
- GI50 (MOLT-4): 1.3 µM (inactive)
- GI50 (RXF 393): 7.26 µM (inactive)
- GI50 (TK-10): < 0.0132 µM (active)
- GI50 (NCI-H226): 0.134 µM (active)
- GI50 (DU-145): 13.9 µM (inactive)
- GI50 (UACC-62): 9.55 µM (inactive)
- GI50 (LOX IMVI): 1.82 µM (inactive)
- GI50 (Hs-578T): 3.08 µM (inactive)
- GI50 (HCT-15): 4.33 µM
- GI50 (SK-MEL-28): 18.9 µM (inactive)
- GI50 (BT-549): 12.9 µM (inactive)
- GI50 (SNB-75): 1.82 µM (inactive)
- GI50 (UACC-257): 5.71 µM (inactive)
- GI50 (SNB-19): 10.4 µM (inactive)
- GI50 (NCI/ADR-RES): 15.2 µM (inactive)
- GI50 (MDA-MB-435): 1.79 µM (inactive)
- GI50 (NCI-H522): 5.46 µM (inactive)
- GI50 (UO-31): 3.29 µM (inactive)
- GI50 (RPMI-8226): 2.09 µM (inactive)
- GI50 (SW-620): 2.65 µM (inactive)
- GI50 (MDA-N): 1.77 µM (inactive)
- GI50 (Malme-3M): 17.4 µM (inactive)
- GI50 (OVCAR-8): 4.82 µM (inactive)
- GI50 (SF-268): 6.75 µM (inactive)
- GI50 (ACHN): 6.04 µM (inactive)
- GI50 (HCT-116): 2 µM (inactive)
- GI50 (786-0): 2.69 µM (inactive)
- GI50 (NCI-H460): 0.132 µM (active)
- GI50 (OVCAR-5): 0.119 µM (active)
- GI50 (HCC 2998): 0.735 µM (active)
- GI50 (MDA-MB-231): 2.29 µM (inactive)
- GI50 (SK-MEL-5): 13.4 µM (inactive)
- GI50 (HT-29): 2.82 µM (inactive)
- GI50 (OVCAR-4): 2.12 µM (inactive)
- GI50 (MCF7): 0.01 µM (active)
- GI50 (M14): 2.14 µM (inactive)
- GI50 (HL-60): 2.02 µM (inactive)
- GI50 (PC-3): 8.05 µM (inactive)
- GI50 (SN12C): 13 µM (inactive)
- GI50 (SR): 0.802 µM (active)
